# Values joined by “and” are separate entries in the source; they are usually repeats but may differ in a detail not shown here. Equal values may be shown once.
# Tests used:
# SARS-CoV-2 M^pro T304I = conditions: cited from earlier work
# SARS-CoV-2 M^pro L50F = conditions: cited from earlier work
# [1] = system: SARS-CoV-2 M^pro T304I mutant virus; type: cell-based
# SARS-CoV-2 M^pro T21I = conditions: cited from earlier work
# [2] = system: SARS-CoV-2 M^pro T21I+S144A+T304I mutant virus; type: cell-based
# SARS-CoV-2 M^pro E166V = conditions: cited from earlier work
smiles,measurement,setting,value
CC(C)(C)[C@H](NC(=O)C(F)(F)F)C(=O)N1C[C@H]2[C@@H]([C@H]1C(=O)N[C@H](C#N)C[C@@H]1CCNC1=O)C2(C)C [Nirmatrelvir],fold resistance to nirmatrelvir,SARS-CoV-2 M^pro T304I,5.5 fold
same,fold resistance to nirmatrelvir,SARS-CoV-2 M^pro L50F,4.2 fold
same,Fold over WA-1,[1],3.4 fold
same,fold resistance to nirmatrelvir,SARS-CoV-2 M^pro T21I,4.6 fold
same,Fold over WA-1,[2],> 20 fold and 27.8 fold
same,fold resistance to nirmatrelvir in vitro,SARS-CoV-2 M^pro E166V,up to 288 fold

# — PMC11268423 (Science Advances, 2024)
